Measured values reported in patent US20100144790A1, “Use of Thalidomide for Alzheimers Disease Treatment and Prevention” (priority 2008, published 2010).
Entries after “also recorded” stand apart in the source; their conditions may differ.

Assays:
[1] = test system: Aβ deposition in the brain of APP23 mice; assay: Aβ plaque number by 6E10 immunostaining in APP23 mice after Thalidomide injection; format: in vivo, mouse; details: Thalidomide 100 mg/kg
Protocol: (§1) Thalidomide is an effective BACE1 inhibitor. The Thalidomide used to test effectiveness was ordered from Sigma, T144, 1.0 gram. The Thalidomide dose was 100 mg/kg/day. The application of Thalidomide to the mice born by the same mother was during the period from 9 months old to 12 months old. The preparation of Thalidomide was at first to be dissolved in DMSO and then diluted with saline. The injection into peritoneal cavity was performed once a day for 3 months. In general, the average weight of the mice was 30 grams. The volume of injection was 100 mg/kg/day×0.03 Kg/mouse=3 mg/mouse/day (if 10 mg/ml of Thalidomide, then 300 ul/mouse/day). […] The amyloid plaque number was 84.6/section in untreated control APP23 mice, where as there was only 3.91/section in the Thalidomide-treated APP23 mice. Use of Thalidomide in the transgenic mice reduced Aβ plaque formation and Aβ production, which is correlated to the reduced BACE1 enzymatic activity and protein level. […]
(§2) Quantitation of immunoreactive structures 30-μm serial sagittal sections through the entire rostrocaudal extent of the hippocampus were cut on a cryostat. […] For each section, we delineated a 400-μm^2 area in CA1 and in the entorhinal cortex and counted all NeuN-immunoreactive cells within that 400-μm^2 box. The mean sum of neurons was counted per animal (n=10). […] We also measured the diameter of each counted plaque. […]

BACE1 [2] = molecular target: T1, BACE1 (Mus musculus, UniProt P56818); assay: BACE1 enzymatic activity in frontal cortex crude extracts of Thalidomide-treated APP23 mice (fluorescent-labeled APP peptide); format: in vivo; details: Thalidomide 100 mg/kg
T1 construct: the frontal cortices of 12-months old APP23 transgenic mice after Thalidomide treatment with doses of 100 mg/kg for one month were obtained for the enzymatic crude extracts; from tissue; host or cells: frontal cortex / brain homogenate of APP23 transgenic mice (C57BL/6 background)
T1 sequence (P56818 46-501): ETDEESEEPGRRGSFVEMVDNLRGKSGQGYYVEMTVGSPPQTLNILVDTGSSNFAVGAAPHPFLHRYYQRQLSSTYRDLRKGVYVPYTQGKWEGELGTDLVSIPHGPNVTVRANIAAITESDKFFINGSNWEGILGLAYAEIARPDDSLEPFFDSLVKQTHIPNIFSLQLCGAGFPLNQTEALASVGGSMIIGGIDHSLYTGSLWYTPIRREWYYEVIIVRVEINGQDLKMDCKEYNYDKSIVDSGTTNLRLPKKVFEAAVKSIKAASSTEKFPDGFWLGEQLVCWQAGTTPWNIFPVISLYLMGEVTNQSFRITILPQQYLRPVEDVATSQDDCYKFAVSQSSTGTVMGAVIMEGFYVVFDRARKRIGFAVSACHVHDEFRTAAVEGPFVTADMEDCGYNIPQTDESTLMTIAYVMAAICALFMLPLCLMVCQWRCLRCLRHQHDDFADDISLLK
Protocol: Thalidomide is an effective BACE1 inhibitor. The Thalidomide used to test effectiveness was ordered from Sigma, T144, 1.0 gram. The Thalidomide dose was 100 mg/kg/day. The application of Thalidomide to the mice born by the same mother was during the period from 9 months old to 12 months old. The preparation of Thalidomide was at first to be dissolved in DMSO and then diluted with saline. The injection into peritoneal cavity was performed once a day for 3 months. In general, the average weight of the mice was 30 grams. The volume of injection was 100 mg/kg/day×0.03 Kg/mouse=3 mg/mouse/day (if 10 mg/ml of Thalidomide, then 300 ul/mouse/day). […]
BACE1 enzymatic activity was measured by using an aliquot of brain homogenate from APP23 and the wild-type mice. […] An equal amount of protein was mixed with 100 μl of substrate, and fluorescence intensity was measured with a microplate reader (BioTek) at an excitation wavelength of 320 nm and an emission wavelength of 390 nm.
To evaluate the BACE1 enzymatic activity level under the impact of Thalidomide, the frontal cortices of 12-months old APP23 transgenic mice after Thalidomide treatment with doses of 100 mg/kg for one month were obtained for the enzymatic crude extracts. […] The specific fluorescence was detected when labeled APPwt or APPsw peptides were cleaved by BACE1. […]

BACE1 [3] = assay: BACE1 protein level in Thalidomide-treated APP23 mice; format: in vivo, mouse; details: Thalidomide 100 mg/kg/day i.p.
Protocol: as §1, with “level. Thus Thalidomide can decrease CSF BACE1 and CSF Aβ in AD and MCI patients.” for “level.”
One BACE1 ELISA used a combination of a highly specific anti-BACE1 polyclonal antibody SECB2 as a capture antibody and biotinylated anti-BACE1 polyclonal antibody SECB1 as a detection antibody. […] The concentration of BACE1 will be calculated from the standard curve and expressed as μg/ml.

APP23 transgenic mice [4] = assay: Neuronal loss in Thalidomide-treated APP23 mice; format: in vivo, mouse; details: Thalidomide 100 mg/kg/day i.p.
Protocol: as §1, §2

APP23 transgenic mice [5] = assay: Aβ-related memory deficits in Thalidomide-treated APP23 mice; format: in vivo, mouse; details: Thalidomide 100 mg/kg/day i.p.
Protocol: The Thalidomide used to test effectiveness was ordered from Sigma, T144, 1.0 gram. […] The application of Thalidomide to the mice born by the same mother was during the period from 9 months old to 12 months old. The preparation of Thalidomide was at first to be dissolved in DMSO and then diluted with saline. The injection into peritoneal cavity was performed once a day for 3 months. In general, the average weight of the mice was 30 grams. […] The Hole-board memory task was used to measure a mouse's ability to remember which one out of four equidistant holes was baited with food. Two photobeam apparatuses were used with a hole board for assessing directed exploration in mice for behavioral tests. A tested mouse (n=10 for each group) was placed in the center of the hole-board and the number of nose pokes was automatically registered for 5 min. […] The number of head dips, time spent head-dipping, and the number of rearings was recorded. A comprehensive cognitive performance was determined by calculating the mean number of correct pokes per trial that mouse made each day. Cognition was expressed as the percentage of correct pokes. The measurements in the hole-board test were analyzed by unpaired t test. […] A recognition index was calculated for each mouse, expressed as the ratio (100TB)×(TA+TB), where TA and TB are the time spent during the second trial on subject A and subject B, respectively.

Aβ production = Aβ production in Thalidomide-treated APP23 mice; format: in vivo, mouse; details: Thalidomide 100 mg/kg/day i.p.
Protocol: as §1
APP23 and wild-type mice (n=10 per group) were killed at 12 and 24 mo of age, and one hemisphere of the brain was homogenized in homogenization buffer (250 mM sucrose, 20 mM Tris-HCl, pH 7.4, 1 mM EDTA, and 1 mM EGTA). […] Protein concentration was measured by protein assay (Bio-Rad Laboratories). […] Aβ40 and Aβ42 were measured with an Aβ40 and Aβ42 ELISA kit (Biosource International). […]

[6] = cited from earlier work
BACE1 [7] = molecular target: T2, BACE1 (Homo sapiens, UniProt P56817); assay: BACE1 enzymatic activity of AD brain crude extracts with caspase inhibitor; format: biochemical; details: AD brain enzymatic crude extracts incubated with the caspase inhibitor
T2 construct: from tissue; host or cells: post-mortem brain of sporadic AD patients (temporal cortex / hippocampus samples)
T2 sequence (P56817 46-501): as the sequence (P56818 46-501) above, with S6P, I162V, I165L, T180S, A182V, V340I, A393L, H443Q counted along it
From the text: BACE1 enzymatic activity level increased in brains of AD patients. Fluorescent transfer peptides bearing the APP wild-type peptide (APPwt) BACE1 cleavage site (KTEEISEVKMDAE) or APP Swedish mutation (APPsw) BACE1 cleavage site ([…]) were used to test BACE1 enzymatic activity. These peptides were also labeled with methoxycoumarin acetic acid (MCA) and dinitrophenyl (DNP). As a positive control, we transiently transfected BACE1 cDNA or empty vector into HEK293 cells, and observed high-intensity fluorescence with BACE1-transfected cells (FIG. 2A). Enzymatic activity, represented by the fluorescent intensity of APPwt and APPsw fragments, increased in AD brain samples compared with ND samples (FIG. 2A). Further, more APPsw fragment than the APPwt fragment was cleaved by crude extracts from AD brain (FIG. 2A).

## O=C1CCC(N2C(=O)c3ccccc3C2=O)C(=O)N1 (centres unmarked) [Thalidomide]
[1]; 12 months of age, frontal cortex, 6E10 immunostaining, untreated APP23 84.6/section
  Aβ plaque number: 3.91 /section
[1]; versus untreated APP23 mice
  Aβ deposition / Aβ plaques (in words): reduced; also recorded: fewer Aβ plaques
BACE1 [2]; 12 months old APP23 mice, frontal cortex extracts, versus untreated APP23 mice
  BACE1 enzymatic activity level (in words): reduced
BACE1 [2]; both the in vitro and in vivo studies, APP23 mice
  decrease in BACE1 activity levels: 42%
BACE1 [3]
  BACE1 protein level (in words): reduced
APP23 transgenic mice [4]
  neuronal loss (in words): decreased neuronal loss
APP23 transgenic mice [5]
  Aβ-related memory deficits (in words): alleviated
Aβ production
  Aβ production (in words): significant reduction
[6]; 400 mg Thalidomide, non-elderly subjects with other conditions, without dose-related, severe or serious adverse events
  tolerability of regimen (in words): tolerated
[6]; human, in vivo
  maximum tolerable doses: 400-800 mg/daily

## ZVAD (Ome)-CH2F
BACE1 [7]
  effect on BACE1 enzymatic activity assay (in words): did not perturb activity
